Measured values reported in US20130059896A1, “5-(1H-PYRAZOL-5-YL)THIAZOLE-BASED COMPOUNDS FOR THE TREATMENT OF DISEASES AND DISORDERS OF THE EYE” (priority 2010, published 2013).

Tested on: wild-type C57:129 F2 hybrid mice
Assay: Dexamethasone-induced ocular hypertension model (IOP by TonoLab tonometer)
Format: in vivo, mouse
Description: Twenty eight day mouse Alzet mini-osmotic pumps (DURECT Corp., Cupertino, Calif.) were filled with a solution of water soluble dexamethasone (dex) in PBS (Sigma, St. Louis, Mo.) so that they would release roughly 0.1 mg of dex per day. Once the pumps were filled with the dex, the pumps were allowed to equilibrate in PBS at 37° C. for 60 hours. The equilibrated pumps were surgically placed subcutaneously on the backs of wild-type C57:129 F2 hybrid mice weighing between 25 and 35 grams. Surgical incisions were sutured with 5-0 braided silk (ROBOZ, Gaithersburg, Md.) and treated with antibiotic ointment throughout the entire duration of study. Surgical incisions were glued with TissueMend II (Webster Veterinary, Houston, Tex.). Analgesic (buprenorphine) was given through IP injection the day of surgery and 24 hours after surgery. Intraocular pressure (IOP) was measured on these mice using a TonoLab (Colonial Medical Supply Co., Franconia, N.H.) tonometer. Mice were mildly sedated with isoflurane and topically anesthetized with 0.5% proparacaine (Akorn, Buffalo Grove, Ill.) before IOP measurements were taken. Baseline IOP was measured 1 day prior to mini-pump implantation. After mini-pump implantation, IOP measurements were taken 2-3 times per week for 4 weeks. Pharmacology studies with potential ocular hypotensive compounds were performed between 21 and 28 days after implantation.

## O=C(C[C@@H]1CCCN1)Nc1ncc(-c2cc(C(F)F)nn2-c2c(Cl)cccc2Cl)s1 [Compound 9, (S)—N-(5-(1-(2,6-dichlorophenyl)-3-(difluoromethyl)-1H-pyrazol-5-yl)thiazol-2-yl)-2-(pyrrolidin-2-yl)acetamide]
3 μg/eye, 0 hr
  Average changes in IOP measured from time of dosing: 0.00 (0.0)
3 μg/eye, 2 hr
  Average changes in IOP measured from time of dosing: −4.10 (2.6)
3 μg/eye, 4 hr
  Average changes in IOP measured from time of dosing: −3.81 (3.8)
3 μg/eye, 6 hr
  Average changes in IOP measured from time of dosing: −3.19 (3.2)
15 μg/eye, 0 hr
  Average changes in IOP measured from time of dosing: 0.00 (0.0)
15 μg/eye, 2 hr
  Average changes in IOP measured from time of dosing: −4.25 (2.7)
15 μg/eye, 4 hr
  Average changes in IOP measured from time of dosing: −4.88 (5.1)
15 μg/eye, 6 hr
  Average changes in IOP measured from time of dosing: −4.88 (4.2)
30 μg/eye, 0 hr
  Average changes in IOP measured from time of dosing: 0.00 (0.0)
30 μg/eye, 2 hr
  Average changes in IOP measured from time of dosing: −3.33 (4.2)
30 μg/eye, 4 hr
  Average changes in IOP measured from time of dosing: −2.86 (1.1)
30 μg/eye, 6 hr
  Average changes in IOP measured from time of dosing: −2.29 (2.2)
Dose response, FIG. 1
  Effect in the ocular hypertension model (FIG. 1): dose dependent effect
